“And” between values parts separate entries of the source, which are not always exact repeats. Identical values can stand only once.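 Values below derive from 48-hour exposures of cells grown in 96-well plates, with endpoints linearly interpolated between the two concentrations bracketing the appropriate inhibition level. Abbreviation: GI50, concentration required for 50% inhibition of growth. TGI: total growth inhibition.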
Legend:
Experiment in all cases: NCI anticancer screen, dose series, 48 h
786-0 renal = tested on: 786-0 renal
ACHN renal = tested on: ACHN renal
COLO 205 colon = tested on: COLO 205 colon
HL-60(TB) leukemia = tested on: HL-60(TB) leukemia
HOP-92 NSCLC = tested on: HOP-92 NSCLC
K-562 leukemia = tested on: K-562 leukemia
MALME-3M melanoma = tested on: MALME-3M melanoma
SN12C renal = tested on: SN12C renal
TK-10 renal = tested on: TK-10 renal
UACC-257 melanoma = tested on: UACC-257 melanoma

Row | Compound | GI50 (786-0 renal) [µM] | TGI (786-0 renal) [µM] | GI50 (ACHN renal) | TGI (ACHN renal) [µM] | GI50 (COLO 205 colon) | TGI (COLO 205 colon) | GI50 (HL-60(TB) leukemia) | TGI (HL-60(TB) leukemia) | GI50 (HOP-92 NSCLC) | TGI (HOP-92 NSCLC) | GI50 (K-562 leukemia) | TGI (K-562 leukemia) [µM] | GI50 (MALME-3M melanoma) | TGI (MALME-3M melanoma) [µM] | GI50 (SN12C renal) | TGI (SN12C renal) | GI50 (TK-10 renal) | TGI (TK-10 renal) [µM] | GI50 (UACC-257 melanoma) | TGI (UACC-257 melanoma)
1 | OC(CNC1CCCC1)Cn1c2ccccc2c2ccccc21 (configuration not stated) | 36.1 | > 100 | 39.6 µM | > 100 | > 100 µM | > 100 µM | > 100 µM | > 100 µM | 14.9 µM | 34.7 µM | > 100 µM | > 100 | 37 µM | > 100 | 44.2 µM | > 100 µM | 27.5 µM | > 100 | > 100 µM | > 100 µM
2 | C=C(C)[C@H](O)C(O)CC(C)[C@@H]1CCC23CC12CCC1[C@@]2(C)CCC(OC(C)=O)C(C)(C)C2CC(OC2OC(COC(C)=O)C(O)C(O)C2O)[C@]13C (some centres not stated) |  | 13.7 |  | 12.6 |  | 12.6 µM |  | 5.08 µM |  | 11 µM |  | 10.8 |  | 14.7 |  | 13 µM |  | 12.5 |  | 12 µM
3 | COC1=CC(=O)[C@]2(C)[C@H](C1=O)C(C)[C@H]2c1ccccc1 (some centres not stated) |  | > 100 |  | > 100 |  | > 100 µM |  | > 100 µM |  | > 100 µM |  | > 100 |  | > 100 |  |  |  | > 100 |  | > 100 µM
4 | CN(C)CCNC(=O)c1cc2c3ccccc3[nH]c2c2ncccc12 | 15.2 | 53.5 | 4.24 µM | 28 | 2.95 µM | 16.5 µM | 10.2 µM | 30 µM | 8.01 µM | 40.6 µM | 9.05 µM | 26.2 | 10.7 µM | 26.5 | 7.36 µM | 39.2 µM | 8.99 µM | 54.7 | 10.4 µM | 88.1 µM
5 | CCOc1ccccc1NC(=O)C1=C(C)NC(C)=C(C(=O)Nc2ccccc2OCC)C1c1ccc(NC(C)=O)cc1 |  | > 100 |  | > 100 |  | 41.1 µM |  | > 100 µM |  | > 100 µM |  | > 100 |  | > 100 |  | > 100 µM |  | > 100 |  | > 100 µM
6 | CCOC(=O)NC(=O)c1cn(CCN2CCN(C(=O)NCCCCCCNC(=O)N3CCN(CCn4cc(C(=O)NC(=O)OCC)c(=O)n(CCN(CC)CC)c4=O)CC3)CC2)c(=O)n(CCC(CC)CC)c1=O |  | > 100 |  | > 100 |  | > 100 µM |  | > 100 µM |  | > 100 µM |  | > 100 |  | > 100 |  | > 100 µM |  | > 100 |  | > 100 µM
7 | CCOC(=O)C#Cc1c(CC(=O)OCC)nnn1[C@H]1O[C@@H](CO)[C@@H]2OC(C)(C)O[C@@H]21 | 6.58 | 19.6 | 1.97 µM | 4.11 | 2.05 µM | 4.06 µM | 1.86 µM | 5.71 µM | 3 µM | 6.94 µM | 3 µM | 11.1 | 2 µM | 4.16 | 3.06 µM | 9.01 µM | 1.76 µM | 3.39 | 4.47 µM | 12.7 µM
8 | C[CH2][Sn]([CH2]C)([O]C(=O)c1cccc(F)c1)[O][Sn]([CH2]C)([CH2]C)[O]C(=O)c1cccc(F)c1 | 15.8 | 29.3 | 18.7 µM | 32.7 | 18.3 µM | 32.2 µM | 26.6 µM | 96.5 µM | 16.5 µM | 30.1 µM | 18 µM | 93.4 | 14.1 µM | 27.3 | 17 µM | 31.3 µM | 19.6 µM | 33.8 | 16.8 µM | 30.9 µM
9 | c1ccc2c3c([nH]c2c1)C1(CCCCC1)c1c([nH]c2ccccc12)C31CCCCC1 |  | 32.2 |  | 59 |  | > 100 µM |  | > 100 µM |  | 46.6 µM |  | > 100 |  | 80.1 |  | > 100 µM |  | 88.7 |  | > 100 µM
10 | Cc1ccc(N2C(=O)/C(=C/c3ccc(N(CCC#N)CCC#N)cc3C)N=C2c2cc([N+](=O)[O-])ccc2Cl)cc1 |  | > 100 |  | > 100 |  | > 100 µM |  | > 100 µM |  | > 100 µM |  | > 100 |  | > 100 |  | > 100 µM |  | > 100 |  | > 100 µM
11 | CC1=Nn2c(nnc2-c2ccc(N)cc2)NC(C)(C)C1 |  | > 100 |  | > 100 |  | > 100 µM |  | > 100 µM |  | > 100 µM |  | > 100 |  | > 100 |  |  |  | > 100 |  | > 100 µM
12 | Cc1ccc(S(=O)(=O)Nc2nc3ccccc3nc2Nc2ccc3nsnc3c2)cc1 | 3.65 | > 100 | 4.01 µM and 3.75 µM | > 100 | 5.81 µM and 9.83 µM | 23.6 µM and > 100 µM | 2.96 µM and 2.86 µM | 14 µM and > 30 µM | 1.89 µM and 0.294 µM | 8.23 µM and 3.73 µM | 3.7 µM and 2.82 µM | > 100 | 2.18 µM and 1.34 µM |  | 3.1 µM and 3.04 µM | 46.8 µM and > 100 µM | 5.18 µM and 3.14 µM | > 100 | 3.56 µM and 2.87 µM | 27.7 µM and > 100 µM
